The target of test [1] is T1, HiBiT-BRM fusion protein in stable HeLa cell line (Homo sapiens, UniProt P51531).
T1 construct: expressed in transfected cells
The test can be described thus: HiBiT-BRM cell-based degradation assay (Nano-Glo HiBiT Lytic Detection, 24 h). To be noted: HeLa HiBiT-BRM cells; for DC50: read-out: BRM HiBit Degradation IC50; for BRM HiBit Degradation Maximum (%): top dose 30 μM. Further details: DC50: scale not given here. On the procedure: (§1) Procedure: A stable HeLa cell line expressing HiBiT-BRM was generated. On day 0, 5000 cells were seeded in 40 μL of media into each well of 384-well cell culture plates. On day 1, cells were treated with 120 nL DMSO or 120 nL of 3-fold serially DMSO-diluted compounds (10 points in duplicate with 30 μM as final top dose). Subsequently plates were incubated for 24 h in a standard tissue culture incubator and equilibrated at room temperature for 15 minutes. Nano-Glo HiBiT Lytic Detection System (Promega N3050) reagent was freshly prepared and 20 ul was added to each well. Upon addition of this LgBit-containing reagent, the HiBiT and LgBiT proteins associate to form the luminescent NanoBiT luciferase. The plates were shaken for 10 minutes at room temperature and the bioluminescence read using an EnVision plate reader (PerkinElmer).
The degradation % was calculated using the following formula: % degradation=100%−100%×(Lumsample−LumLC)/(LumHC−LumLC). DMSO treated cells are employed as High Control (HC) and 2 μM of a known BRM/BRG1 degrader standard treated cells are employed as Low Control (LC).

Test [2] has as its target T2, HiBit-BRG1 fusion protein in stable HeLa cell line expressing HiBit-BRG1 and LgBit (Homo sapiens, UniProt P51532).
T2 construct: expressed in transfected cells
Put plainly: HiBiT-BRG1 cell-based degradation assay (Nano-Glo HiBiT, 24 h). To be noted: HeLa HiBit-BRG1/LgBit cells; for Dmax: top dose 30 μM, read-out: BRG1 HiBit Degradation Maximum (%); for DC50: read-out: BRMG1 HiBit Degradation IC50. On the procedure: as §1, with “On day 1, cells were treated with 120 nL DMSO or 120 nL of 3-fold serially DMSO-diluted compounds (10 points in duplicate with 30 μM as final top dose).” left out, “(PerkinElmer). For measurement of BRG1 degradation, a stable HeLa cell line expressing HiBit-BRG1 and LgBit was generated. The same protocol as above was then followed. The degradation % was calculated using the following formula: % degradation=100%−100%×(Lumsample−LumLC)/(LumHC−LumLC). DMSO treated cells are employed as High Control (HC) and 2 μM of a known BRM/BRG1 degrader standard treated cells are employed as Low Control (LC).” for “(PerkinElmer).”
(The HiBiT peptide binds its large partner to form an active luciferase.)

T1 sequence (P51531 whole entry, the tested form may be a part): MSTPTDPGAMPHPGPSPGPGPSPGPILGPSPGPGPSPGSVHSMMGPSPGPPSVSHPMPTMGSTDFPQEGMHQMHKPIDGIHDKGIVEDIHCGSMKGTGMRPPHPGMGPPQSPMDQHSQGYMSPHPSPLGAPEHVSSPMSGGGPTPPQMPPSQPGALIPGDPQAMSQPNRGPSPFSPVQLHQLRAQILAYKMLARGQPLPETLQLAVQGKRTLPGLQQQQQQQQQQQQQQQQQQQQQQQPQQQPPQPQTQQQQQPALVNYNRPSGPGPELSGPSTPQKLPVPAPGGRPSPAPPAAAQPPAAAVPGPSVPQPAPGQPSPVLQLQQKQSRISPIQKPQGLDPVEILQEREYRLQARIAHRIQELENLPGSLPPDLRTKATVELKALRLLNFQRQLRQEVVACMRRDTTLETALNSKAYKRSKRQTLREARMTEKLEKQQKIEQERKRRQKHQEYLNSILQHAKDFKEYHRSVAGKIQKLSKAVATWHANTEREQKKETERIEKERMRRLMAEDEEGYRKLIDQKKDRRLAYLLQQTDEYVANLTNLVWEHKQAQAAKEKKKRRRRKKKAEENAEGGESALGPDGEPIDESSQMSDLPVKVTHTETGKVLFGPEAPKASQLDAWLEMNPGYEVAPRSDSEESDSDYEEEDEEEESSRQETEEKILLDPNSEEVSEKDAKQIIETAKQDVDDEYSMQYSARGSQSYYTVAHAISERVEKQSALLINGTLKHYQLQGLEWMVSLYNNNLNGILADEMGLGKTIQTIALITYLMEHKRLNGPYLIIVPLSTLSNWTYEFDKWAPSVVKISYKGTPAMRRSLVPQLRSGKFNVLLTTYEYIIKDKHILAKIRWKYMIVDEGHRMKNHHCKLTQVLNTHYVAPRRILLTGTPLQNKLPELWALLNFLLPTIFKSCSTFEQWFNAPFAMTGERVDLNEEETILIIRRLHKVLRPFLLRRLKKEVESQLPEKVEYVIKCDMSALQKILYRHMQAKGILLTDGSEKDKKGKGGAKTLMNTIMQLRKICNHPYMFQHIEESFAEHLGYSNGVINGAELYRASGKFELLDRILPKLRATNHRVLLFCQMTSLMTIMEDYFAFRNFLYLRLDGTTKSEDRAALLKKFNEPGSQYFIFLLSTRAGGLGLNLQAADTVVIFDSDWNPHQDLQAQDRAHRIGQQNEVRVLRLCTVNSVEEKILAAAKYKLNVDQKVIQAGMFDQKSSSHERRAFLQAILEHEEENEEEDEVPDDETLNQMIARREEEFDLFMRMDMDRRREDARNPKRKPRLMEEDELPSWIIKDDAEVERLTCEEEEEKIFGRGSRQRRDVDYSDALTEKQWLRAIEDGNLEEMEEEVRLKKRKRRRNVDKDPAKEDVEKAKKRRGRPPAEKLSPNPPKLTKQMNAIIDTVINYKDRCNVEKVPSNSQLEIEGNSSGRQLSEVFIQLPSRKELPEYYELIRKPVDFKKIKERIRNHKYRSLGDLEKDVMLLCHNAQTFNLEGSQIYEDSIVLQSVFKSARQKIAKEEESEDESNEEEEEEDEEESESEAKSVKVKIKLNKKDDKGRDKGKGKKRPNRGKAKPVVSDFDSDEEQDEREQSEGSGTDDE
T2 sequence (P51532 whole entry, the tested form may be a part): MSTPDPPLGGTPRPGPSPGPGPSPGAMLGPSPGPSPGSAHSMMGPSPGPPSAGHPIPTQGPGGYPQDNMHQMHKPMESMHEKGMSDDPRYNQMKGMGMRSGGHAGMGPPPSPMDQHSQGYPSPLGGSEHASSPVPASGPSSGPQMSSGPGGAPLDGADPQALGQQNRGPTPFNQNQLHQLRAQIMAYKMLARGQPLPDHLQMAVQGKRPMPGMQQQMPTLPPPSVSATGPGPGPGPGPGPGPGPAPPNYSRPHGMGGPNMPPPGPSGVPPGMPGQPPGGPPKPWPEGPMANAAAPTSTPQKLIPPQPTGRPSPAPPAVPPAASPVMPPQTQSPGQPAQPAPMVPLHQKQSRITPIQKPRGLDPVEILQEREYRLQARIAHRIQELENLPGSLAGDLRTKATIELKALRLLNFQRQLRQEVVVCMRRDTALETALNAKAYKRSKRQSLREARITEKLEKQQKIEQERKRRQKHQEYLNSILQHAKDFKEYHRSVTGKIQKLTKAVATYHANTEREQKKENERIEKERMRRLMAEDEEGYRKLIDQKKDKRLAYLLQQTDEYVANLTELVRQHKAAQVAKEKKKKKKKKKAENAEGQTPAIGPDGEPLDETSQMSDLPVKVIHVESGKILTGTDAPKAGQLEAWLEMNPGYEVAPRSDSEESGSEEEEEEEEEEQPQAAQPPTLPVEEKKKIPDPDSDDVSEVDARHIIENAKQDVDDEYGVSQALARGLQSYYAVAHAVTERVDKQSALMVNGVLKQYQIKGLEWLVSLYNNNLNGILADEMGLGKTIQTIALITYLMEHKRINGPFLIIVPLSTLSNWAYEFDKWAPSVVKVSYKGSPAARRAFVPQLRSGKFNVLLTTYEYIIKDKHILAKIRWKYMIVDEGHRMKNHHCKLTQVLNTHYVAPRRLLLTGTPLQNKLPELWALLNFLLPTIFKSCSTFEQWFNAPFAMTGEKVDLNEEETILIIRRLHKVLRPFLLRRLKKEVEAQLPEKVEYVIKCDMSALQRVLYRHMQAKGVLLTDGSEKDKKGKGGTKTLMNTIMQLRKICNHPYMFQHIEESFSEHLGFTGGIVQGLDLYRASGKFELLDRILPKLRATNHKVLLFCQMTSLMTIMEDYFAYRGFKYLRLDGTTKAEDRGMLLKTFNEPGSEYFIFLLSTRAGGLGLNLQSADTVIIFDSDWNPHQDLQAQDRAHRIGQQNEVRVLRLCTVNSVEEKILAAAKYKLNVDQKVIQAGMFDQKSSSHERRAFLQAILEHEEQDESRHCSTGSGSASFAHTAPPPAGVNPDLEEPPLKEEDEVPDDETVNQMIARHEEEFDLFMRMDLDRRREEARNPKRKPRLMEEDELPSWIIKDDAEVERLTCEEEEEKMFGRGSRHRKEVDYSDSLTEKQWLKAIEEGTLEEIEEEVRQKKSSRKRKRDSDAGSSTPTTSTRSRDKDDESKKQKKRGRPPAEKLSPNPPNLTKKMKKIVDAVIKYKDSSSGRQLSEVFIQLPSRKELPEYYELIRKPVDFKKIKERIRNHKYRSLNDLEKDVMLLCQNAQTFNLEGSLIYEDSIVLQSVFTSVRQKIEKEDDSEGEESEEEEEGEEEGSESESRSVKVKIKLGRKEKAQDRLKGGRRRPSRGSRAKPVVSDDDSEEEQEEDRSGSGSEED

Regarding `Cc1ncsc1-c1ccc([C@H](C)NC(=O)[C@@H]2C[C@@H](O)CN2C(=O)[C@@H](c2cc(OCC(=O)N3CC(c4ccc5nnc(-c6ccccc6O)cc5c4)C3)no2)C(C)C)cc1` [Compound 6, (2S,4R)-4-hydroxy-1-[(2R)-2-[3-(2-{3-[3-(2-hydroxyphenyl)cinnolin-6-yl]azetidin-1-yl}-2-oxoethoxy)-1,2-oxazol-5-yl]-3-methylbutanoyl]-N-[(1S)-1-[4-(4-methyl-1,3-thiazol-5-yl)phenyl]ethyl]pyrrolidine-2-carboxamide], in test [1], the DC50 was more than 100 nM and the “BRM HiBit Degradation Maximum (%)” value is recorded as “B (“B” indicates maximum degradation ≥50%)”. For the same compound, the Dmax in test [2] is less than 50%.

As for `COc1cc2cc(-c3ccccc3O)nnc2cc1CN1CC[C@H](N2CCN(c3cc([C@H](C(=O)N4C[C@H](O)C[C@H]4C(=O)N[C@@H](C)c4ccc(-c5scnc5C)cc4)C(C)C)on3)CC2)C(F)(F)C1` [Compound 219, (2S,4R)-1-((R)-2-(3-(4-((S)-3,3-difluoro-1-((3-(2-hydroxyphenyl)-6-methoxycinnolin-7-yl)methyl)piperidin-4-yl)piperazin-1-yl)isoxazol-5-yl)-3-methylbutanoyl)-4-hydroxy-N-((S)-1-(4-(4-methylthiazol-5-yl)phenyl)ethyl)pyrrolidine-2-carboxamide], in test [1], the DC50 was less than 10 nM and the “BRM HiBit Degradation Maximum (%)” value is listed as “A (“A” indicates maximum degradation ≥75%)”. In test [2], the DC50 is more than 10 nM and the Dmax was more than 75%.

In the case of `CC(C)[C@@H](C(=O)N1C[C@H](O)C[C@H]1C(=O)N[C@@H](C)c1ccc(F)cc1)n1cc(N2CC3(CN(c4ccc5cc(-c6ccccc6O)nnc5c4)C3)C2)nn1` [Compound 201, (2S,4R)-N-((S)-1-(4-fluorophenyl)ethyl)-4-hydroxy-1-((S)-2-(4-(6-(3-(2-hydroxyphenyl)cinnolin-7-yl)-2,6-diazaspiro[3.3]heptan-2-yl)-1H-1,2,3-triazol-1-yl)-3-methylbutanoyl)pyrrolidine-2-carboxamide], in test [1], the DC50 is less than 10 nM and the “BRM HiBit Degradation Maximum (%)” value is “A (“A” indicates maximum degradation ≥75%)”. Also, in test [2], the DC50 was more than 10 nM and the Dmax is more than 50%.

As for `Cc1ncsc1-c1ccc([C@H](C)NC(=O)[C@@H]2C[C@@H](O)CN2C(=O)[C@@H](c2cc(N3CCOC4(CCN(c5ccc6nnc(-c7ccccc7O)cc6c5)CC4)C3)no2)C(C)C)cc1` [Compound 147, (2S,4R)-4-hydroxy-1-((R)-2-(3-(9-(3-(2-hydroxyphenyl)cinnolin-6-yl)-1-oxa-4,9-diazaspiro[5.5]undecan-4-yl)isoxazol-5-yl)-3-methylbutanoyl)-N-((S)-1-(4-(4-methylthiazol-5-yl)phenyl)ethyl)pyrrolidine-2-carboxamide], in test [1], the DC50 is less than 10 nM and the “BRM HiBit Degradation Maximum (%)” value is recorded as “A (“A” indicates maximum degradation ≥75%)”. Further, in test [2], the DC50 is more than 10 nM and the Dmax is more than 75%.

As to `Cc1ncsc1-c1ccc([C@H](C)NC(=O)[C@@H]2C[C@@H](O)CN2C(=O)[C@@H](c2cc(N3CC4(C3)CN(c3cc5nnc(-c6ccccc6O)cc5cc3C#N)C4)no2)C(C)C)cc1` [Compound 167, (2S,4R)-1-((R)-2-(3-(6-(6-cyano-3-(2-hydroxyphenyl)cinnolin-7-yl)-2,6-diazaspiro[3.3]heptan-2-yl)isoxazol-5-yl)-3-methylbutanoyl)-4-hydroxy-N-((S)-1-(4-(4-methylthiazol-5-yl)phenyl)ethyl)pyrrolidine-2-carboxamide], in test [1], the DC50 was less than 10 nM and the “BRM HiBit Degradation Maximum (%)” value is “A (“A” indicates maximum degradation ≥75%)”. Further, the Dmax in test [2] was less than 50%.

Turning to `Cc1ncsc1-c1ccc([C@H](C)NC(=O)[C@@H]2C[C@@H](O)CN2C(=O)[C@@H](c2cc(N3CCC(N4CC(c5ccc6nnc(-c7ccccc7O)cc6c5)C4)CC3)no2)C(C)C)cc1` [Compound 3, (2S,4R)-4-hydroxy-1-((R)-2-(3-(4-(3-(3-(2-hydroxyphenyl)cinnolin-6-yl)azetidin-1-yl)piperidin-1-yl)isoxazol-5-yl)-3-methylbutanoyl)-N-((S)-1-(4-(4-methylthiazol-5-yl)phenyl)ethyl)pyrrolidine-2-carboxamide], in test [1], the DC50 was less than 10 nM and the “BRM HiBit Degradation Maximum (%)” value is on record as “A (“A” indicates maximum degradation ≥75%)”. Moreover, in test [2], the DC50 is less than 10 nM and the Dmax is more than 75%.

Consider `Cc1ncsc1-c1ccc([C@H](C)NC(=O)[C@@H]2C[C@@H](O)CN2C(=O)C(C(C)C)n2cc(N3CCC4(CCCN4c4ccc5cc(-c6ccccc6O)nnc5c4)C3)nn2)cc1` (stereo partly drawn) [Compound 262, (2S,4R)-4-hydroxy-1-(2-(4-(1-(3-(2-hydroxyphenyl)cinnolin-7-yl)-1,7-diazaspiro[4.4]nonan-7-yl)-1H-1,2,3-triazol-1-yl)-3-methylbutanoyl)-N-((S)-1-(4-(4-methylthiazol-5-yl)phenyl)ethyl)pyrrolidine-2-carboxamide], for which, in test [1], the DC50 was more than 100 nM and the “BRM HiBit Degradation Maximum (%)” value is recorded as “A (“A” indicates maximum degradation ≥75%)”. Moreover, in test [2], the DC50 is more than 100 nM and the Dmax is more than 50%.

For `Cc1ncsc1-c1ccc([C@H](C)NC(=O)[C@@H]2C[C@@H](O)CN2C(=O)[C@@H](c2cc(N3C[C@@H]4[C@H](C3)[C@H]4c3ccc4nnc(-c5ccccc5O)cc4c3)no2)C(C)C)cc1` [Compound 86, (2S,4R)-4-hydroxy-1-((R)-2-(3-((1R,5S,6S)-6-(3-(2-hydroxyphenyl)cinnolin-6-yl)-3-azabicyclo[3.1.0]hexan-3-yl)isoxazol-5-yl)-3-methylbutanoyl)-N-((S)-1-(4-(4-methylthiazol-5-yl)phenyl)ethyl)pyrrolidine-2-carboxamide], in test [1], the DC50 is less than 10 nM and the “BRM HiBit Degradation Maximum (%)” value was “A (“A” indicates maximum degradation ≥75%)”. Also, in test [2], the Dmax was less than 50%.

As for `Cc1ncsc1-c1ccc([C@H](C)NC(=O)[C@@H]2C[C@@H](O)CN2C(=O)[C@@H](c2cc(N3CC4=C(CN(c5ccc6nnc(-c7ccccc7O)cc6c5)C4)C3)no2)C(C)C)cc1` [Compound 229, (2S,4R)-4-hydroxy-1-((R)-2-(3-(5-(3-(2-hydroxyphenyl)cinnolin-6-yl)-3,4,5,6-tetrahydropyrrolo[3,4-c]pyrrol-2(1H)-yl)isoxazol-5-yl)-3-methylbutanoyl)-N-((S)-1-(4-(4-methylthiazol-5-yl)phenyl)ethyl)pyrrolidine-2-carboxamide], in test [1], the DC50 was less than 10 nM and the “BRM HiBit Degradation Maximum (%)” value is reported as “A (“A” indicates maximum degradation ≥75%)”. In test [2], the DC50 is less than 10 nM and the Dmax was more than 75%.

Take `Cc1ncsc1-c1ccc([C@H](C)NC(=O)[C@@H]2C[C@@H](O)CN2C(=O)[C@H](C2CC2)n2cc(N3CC4(CN(c5ccc6cc(-c7ccccc7O)nnc6c5)C4)C3)nn2)cc1` (single isomer, unassigned) [Compound 210]: in test [1], the DC50 was less than 10 nM and the “BRM HiBit Degradation Maximum (%)” value is given as “A (“A” indicates maximum degradation ≥75%)”.

For the compound `Cc1ncsc1-c1ccc([C@H](C)NC(=O)[C@@H]2C[C@@H](O)CN2C(=O)[C@@H](c2cc(N3CC4(CN(c5ccc6cc(-c7ccccc7O)nnc6c5)C4)C3)no2)C(C)C)cc1` (single isomer, unassigned) [Compound 51], in test [1], the DC50 is less than 10 nM and the “BRM HiBit Degradation Maximum (%)” value is listed as “A (“A” indicates maximum degradation ≥75%)”.
